Patent US10646490B2, “Thieno- and pyrrolopyrimidine analogues and prodrugs thereof as anticancer agents and methods of use thereof” (UNIVERSITY OF MARYLAND, BALTIMORE COUNTY, priority 2015, dated 2020)
Where two headings read alike, the source gives them in different places.

What was measured:
A549 = test: Cancer cell line activity screening; format: cell-based
MDA-MB-231 = test: Cancer cell line activity screening; format: cell-based, human
[1] = test system: MIA Pa-Ca-2 pancreatic cancer cells; test: Cancer cell line activity screening; format: cell-based
MOLM14 = test: Cancer cell line activity screening; format: cell-based
[2] = test system: various cancer cell lines; test: Cancer cell line activity screening, panel; format: cell-based; settings: Table 5; read-out: IC50 values as low as
Source text: (§1) In order to investigate the PK profile of these compounds, a series of halogenated pyrrolo[3,2-d]pyrimidine compounds was synthesized and first tested for activity in various cancer cell lines followed by a mouse model. […] This indicates a wide variance in activity and toxicity that necessitated the synthesis of a second series of compounds with N5 alkyl substitutions in an effort to slow the rate of metabolism, which was thought to be leading to the toxicity.

[3] = Maximum tolerated dose / toxicity in mice; format: in vivo; settings: for MTD: mouse, in vivo
Source text: as §1

[4] = Mouse pharmacokinetics, plasma half-life; format: in vivo; settings: for t1/2: 10 mg/kg injection
Procedure: Further, mouse studies on 7 were carried out at The Cancer Center Pharmacology Core (CCPC, Colorado State University) by injection of 10 mg/kg of the compound, followed by euthanization at 15, 30, 60, 90, 120, 240, and 480 minutes. […] Mouse studies on 9 were performed in the same manner.

[5] = Stability in aqueous buffer; format: physicochemical
[6] = Stability in biological media; format: in vitro ADME

Row | IC50 (A549) [nM] | IC50 (MDA-MB-231) [nM] | IC50 [1] [nM] | IC50 (MOLM14) [nM] | Compound | IC50 (A549; Homo sapiens, A549) [nM] | IC50 (MDA-MB-231; Homo sapiens, MDA-MB-231) [nM] | IC50 ([1]; Homo sapiens, MIA PaCa-2) [nM] | IC50 (MOLM14; Homo sapiens, MOLM-14) [nM] | IC50 [2] [nM] | MTD ([3]; mice) [mg/kg] | toxicity higher than 7 ([3]; vs 7) [fold] | maximum tolerated dose (MTD) ([3]; mice) [mg/kg] | t1/2 [4] [min] | duration stable in aqueous buffer (for up to) [5] | time to undetectable in biological media [6] [hour] | time to little to no detection in mouse plasma [4] [min]
1 |  |  |  |  | Clc1nc(Cl)c2[nH]cc(Br)c2n1 [Compound 6] | 50 ± 20 | 400 ± 300 | 14 ± 1 | 23 ± 4 | ≥ 14 | 5 to 40 | 2 |  |  |  |  | 
2 |  |  |  |  | Clc1nc(Cl)c2c(n1)c(I)cn2COCc1ccccc1 [Compound 8, 5-((Benzyloxy)methyl)-2,4-dichloro-7-iodo-pyrrolo[3,2-d]pyrimidine] |  | 6100 ± 400 | 7300 ± 800 |  |  |  |  |  |  |  |  | 
3 |  |  |  |  | Cc1ccc(S(=O)(=O)n2cc(I)c3nc(Cl)nc(Cl)c32)cc1 [Compound 9, 2,4-Dichloro-7-iodo-5-tosyl-pyrrolo[3,2-d]pyrimidine] |  | 790 ± 40 | 500 ± 20 |  |  | 5 to 40 |  | 40 | 32.7 | up to 24 hours | ≤ 1 | 
4 | 14500 ± 3500 | 9700 ± 9700 | 5300 ± 1000 | 9500 ± 3100 | Clc1nc(Cl)c2[nH]ccc2n1 [Compound 19, 2,4-Dichloropyrrolo[3,2-d]pyrimidine] |  |  |  |  |  |  |  |  |  |  |  | 
5 |  |  |  |  | Clc1nc(Cl)c2[nH]cc(I)c2n1 [Compound 20, 7-iodo-2,4-dichloro pyrrolo[3,2-d]pyrimidine] | 1000 ± 100 | 1200 ± 400 | 370 ± 50 | 550 ± 70 | ≥ 14 | 5 to 40 |  |  | 30.7 |  |  | ≤ 70
